# Experimental data as given in patent US20130252945A1, “AMORPHOUS BIOINORGANIC IONIC LIQUID COMPOSITIONS COMPRISING PHARMACEUTICALS” (priority 2012, published 2013).
# Where “and” joins values, the source holds several entries; their conditions need not be identical. Equal values may be shown once. Where a name gives a salt, the structure may show the parent alone.
# What was measured:
# [1] = Decomposition temperature by TGA; format: physicochemical; settings: for Tdec (decomposition temperature): TGA under N2, 20° C. per minute
# Procedure: (§1) Melting points of all purchased materials were determined in a capillary tube using a MeI-Temp apparatus (Barnstead/Thermo Scientific). NMR data sets were collected on a 300 MHz Bruker instrument using sample concentrations of 50 mM. Infrared spectra were measured using an Avatar 360 FT-IR ESP (ThermoElectron-Nicolet, Waltham, Mass.) equipped with a Smart DuraSamplIR horizontal attenuated total reflectance (HATR) accessory. Raman spectra were measured using a Thermo-Nicolet 470 FTIR with Nd:YAG laser excitation and HgCdTe detector. Viscosity was measured on 1 mL samples with a Viscolab 3000 viscometer (Cambridge Viscosity, Medford, Mass.). Samples were heated to 90° C., except when otherwise specified, and viscosity was recorded in 2 degree increments between 50 and 90° C. with 8 min equilibration at each temperature. Thermal characterization was carried out using a Q100 DSC and a Q500 TGA (both from TA Instruments, New Castle, Del.). DSC was performed using a 5-10 mg sample in a 40 μL aluminum crucible sealed in the glovebox. A temperature range from −60 to 150° C. was scanned twice, at ramp rates of 5° C./min and 10° C./min. TGA was performed under N2 atmosphere over a temperature range from 25-800° C. with a ramp rate of 20° C. per minute and a sample size of 10 mg.
# [2] = Storage under Ar, observation for crystalline domains over 6 months; format: physicochemical; settings: stored under Ar, observed over 6 months
# [3] = tested on: Pseudomonas aeruginosa biofilms (clinical isolate from sputum); experiment: Challenge of established biofilms (72 h) with test compound, CFU count; format: cell-based; settings: 6 h at 37° C.
# [4] = Solubility in solvents (soluble / insoluble); settings: organic solvent or mixture
# [5] = tested on: Pseudomonas aeruginosa culture; experiment: Biofilm growth on IL-coated culture plates; format: cell-based; settings: 100 μL IL per well, counted after 72 h, limit of detection
# Procedure: (§2) A second example of clear, colorless antimicrobial films formed by compositions described herein was shown with an assay that involved coating culture plates with IL and observing the biofilm growth on the coated surface. […] Aliquots of 100 μL of either a Staphylococcus aureus culture, an E. coli culture, or a Pseudomonas aeruginosa culture were added to each coated well, the plate was fed with fresh media every 24 h, and cells were counted after 72 h, as described above. The number of cells in the treated wells was below the limit of detection of the assay of 1000 cfu/mL, as compared with normal cell counts for the LB control wells, indicating high antimicrobial efficacy of the IL coating. Because bacteria colonize a surface prior to barnacles and other organisms, proof of antibacterial effects is key to showing anti-biofouling potential in aquatic environments.
# E. coli culture = experiment: Biofilm growth on IL-coated culture plates; format: cell-based; settings: 100 μL IL per well, counted after 72 h, limit of detection
# Procedure: as §2
# [6] = tested on: Staphylococcus aureus culture; experiment: Biofilm growth on IL-coated culture plates; format: cell-based; settings: 100 μL IL per well, counted after 72 h, limit of detection
# Procedure: as §2
# [7] = format: physicochemical; settings: 3 h incubation at a constant 120° C.
# [8] = Shelf life by model-free isoconversional kinetic analysis of TGA data; format: physicochemical
# Procedure: Zinc(II) chloride (273 mg, 2 mmol) was added to a scintillation vial that had been heated, then cooled under vacuum and charged with dry argon. Phenoxybenzamine hydrochloride (340.3 mg, 1 mmol) was added to the vial with a stir bar and the mixture was degassed with stirring at 60° C. The vial was filled with argon, sealed with a cap, and stirred for 24 h at 80° C. to produce a clear, colorless glass. […] NMR spectra for ^1H and ^13C were obtained in d6-acetone. […] Spectra of phenoxybenzamine-HCl were performed with 0, 0.25, 0.5, 1.0, 1.5, 2.0, and 5.0 molar equivalents of ZnCl2 to observe this effect. Thermal decomposition after a 3 h incubation of the IL at a constant 120° C. was 2.7% of the starting mass. In contrast, the phenoxybenzamine hydrochloride starting material loses 38% of its mass after a similar incubation. The IL was soluble (>1 mM) in acetone, water and phosphate buffered to pH 6.0. The IL was insoluble (<1 mM) in toluene and tetrahydrofuran. […] The manufacturer's shelf life for 10 mg phenoxybenzamine hydrochloride tablets is 2 years, or 730 days, and the calculated value for solid phenoxybenzamine hydrochloride (5% decay at 20° C.) was 750 days (2.05 years), indicating good agreement of the calculation with actual shelf life. […]
# [9] = Solubility at 1 mM in unbuffered water by eye and UV-Vis after filtration; format: physicochemical; settings: unbuffered water (pH 6.5), by eye
# Procedure: Solubility of phenoxybenzamine hydrochloride and phenoxybenzamine-HCl—(ZnCl2)2 at 1 mM in unbuffered water (pH 6.5) was evaluated by eye and by UV-Vis spectroscopy after filtration through a 0.45 μm syringe filter.
# [10] = Viscosity (Viscolab 3000 viscometer); format: physicochemical; settings: at 90° C.
# Procedure: as §1
molecule,measurement,setting,value
CNC(=C[N+](=O)[O-])NCCSCc1ccc(CN(C)C)o1.Cl.[Cl][Zn][Cl].[Cl][Zn][Cl],Tdec (decomposition temperature),[1],230.9 °C
same,appearance of crystalline domains on storage,[2],no crystalline domains appeared
"CCCC[N+]1(C)CCCC1.O=S(=O)([N-]S(=O)(=O)C(F)(F)F)C(F)(F)F [BMP-NTf2, 1-butyl-1-methypyrrolidinium bistriflimide]",cell count of biofilm after challenge,[3]; neat,2×10^5
CN1[C@@H]2CC[C@H]1CC(OC(=O)C(O)c1ccccc1)C2 (stereo partly drawn) [Homatropine-HCl—(ZnCl2)2],ΔTdec (increase in decomposition temperature relative to HCl starting material),[1]; TGA,+7.8 °C
same,appearance of crystalline domains on storage,[2],no crystalline domains appeared
same,solubility,[4]; dimethylsulfoxide,> 1000 µM
same,solubility,[4]; toluene,< 1000 µM
CN(C)CCCN1c2ccccc2CCc2ccccc21.Cl.[Cl][Zn][Cl].[Cl][Zn][Cl] [Imipramine-HCl—(ZnCl2)2],appearance of crystalline domains on storage,[2],no crystalline domains appeared
[Cl-].[Na+] [NaCl],cell count of biofilm after challenge,"[3]; 5 M in LB, control for ionic strength",1×10^6 cells
"[Cl-].[Cl-].[Zn+2] [ZnCl2, Zinc(II) chloride]",cell count of biofilm after challenge,[3]; 1.8 M in LB,4×10^5
"CC(C)(C)CC(C)(C)c1ccc(OCCOCC[N+](C)(C)Cc2ccccc2)cc1 [benzethonium chloride, Benzethonium chloride]",viable dispersed cell count (conservative estimate),"[3]; 78 mM in LB, formed precipitate",~5×10^4 cfu/mL
"CC(C)(C)CC(C)(C)c1ccc(OCCOCC[N+](C)(C)Cc2ccccc2)cc1 [benzethonium-Cl—(ZnCl2)2, Benzethonium-Cl—(ZnCl2)2]",number of cells in treated (IL-coated) wells,[5],< 1000 cfu/mL
same,number of cells in treated (IL-coated) wells,E. coli culture,< 1000 cfu/mL
same,number of cells in treated (IL-coated) wells,[6],< 1000 cfu/mL
"CC(COc1ccccc1)N(CCCl)Cc1ccccc1 (stereo not drawn) [phenoxybenzamine hydrochloride, Phenoxybenzamine hydrochloride, reference compound]",thermal decomposition (loss of starting mass),[7],38%
"CC(COc1ccccc1)N(CCCl)Cc1ccccc1.Cl.[Cl][Zn][Cl].[Cl][Zn][Cl] (stereo not drawn) [phenoxybenzamine-HCl—(ZnCl2)2, Phenoxybenzamine-HCl—(ZnCl2)2]",thermal decomposition (loss of starting mass),[7],2.7%
same,improvement of shelf life over solid phenoxybenzamine hydrochloride,"[8]; at 20° C., 5% decomposition",7.7 fold
same,improvement of shelf life over standard formulation in syrup and propylene glycol,[8]; compared with 4-day refrigerator shelf life,1500 fold
same,appearance of crystalline domains on storage,[2],no crystalline domains appeared
same,solubility in unbuffered water (appeared to completely dissolve),[9],≥ 1 mM and ≥ 0.34 mg/mL
Ethambutol-(HCl)2—(ZnCl2)2,Viscosity,[10],17350 cP
same,appearance of crystalline domains on storage,[2],no crystalline domains appeared
Procainamide-HCl—(ZnCl2)2,Tdec (decomposition temperature),[1],291.0 °C
same,appearance of crystalline domains on storage,[2],no crystalline domains appeared
